Experimental data reported in patent US4713453A, “Oxabicycloheptane derivatives” (Suntori Limited, priority 1986, dated 1987).
≈ marks a conversion by molar mass, not a printed value. Entries after “also recorded” stand apart in the source; their conditions may differ. Where two headings read alike, the source gives them in different places.

Key:
[1] = tested on: ECS-induced amnesia in mice; assay: Effect on electroconvulsive shock (ECS)-induced amnesia in mice, step-through passive avoidance; format: in vivo, mouse (male ddY); conditions: 6.25 and 12.5 mg/kg, intraperitoneal, 30 minutes before retention test
Method: (§1) 6b. Effects on electroconvulsive shock (ECS)- and cycloheximide-induced amnesia in mice
(§2) Male, ddY strain mice, weighing 25 to 35 g, were used. Memory retention deficit induced by ECS and cycloheximide was evaluated by two-compartment step-through passive avoidance task using a light-dark apparatus. Passive avoidance training test began by placing the mouse into the light compartment. When the mouse moved completely into the dark compartment, a shock of 0.6 mA was applied from the grid floor. Amnesia was induced in the following two ways. In the first one, a single ECS (current 50 mA, frequency 50 Hz, pulse width 1 msec, shock duration 1 msec) was applied via a pair of electrodes attached to the head immediately after receiving the foot shock, and the mouse was returned to its home cage. Test compounds were administered intraperitoneally 30 minutes before a retention test. In the second one, cycloheximide (40 mg/kg) was administered subcutaneously 30 minutes before the training and the compounds in question were administered intraperitoneally immediately after the training. A retention test was given 24 hours later. The test procedures proceeded in a manner similar to the training one, and time to entry into the dark compartment was measured for 300 seconds.

[2] = tested on: Male ICR mice; assay: Anti-depression effect (forced swimming, revolutions of water wheel); format: in vivo, mouse (male ICR); conditions: 50 mg/kg, intraperitoneal
Text: Male ICR mice weighing 25-30 g were used in groups each consisting of 6 or 7 animals. […] First, the mouse was subjected to force swimming for two days on a 15-minutes-a-day basis; starting on the third day, the mouse that had received intraperitoneal injection of a test compound one hour before was subjected to forced swimming for 3 days on a 15-minutes-a-day basis.

[3] = tested on: cycloheximide-induced amnesia in mice; assay: Effect on cycloheximide-induced amnesia in mice, step-through passive avoidance; format: in vivo, mouse (male ddY); conditions: 6.25 and 50 mg/kg, intraperitoneal, immediately after training; cycloheximide 40 mg/kg s.c.
Method: as §1, §2

[4] = tested on: vertebral artery; assay: Effect on blood flow in the vertebral artery, blood pressure and heart rate in anesthetized dogs; format: in vivo, dog (mongrel); conditions: femoral vein
Method: 4. Effect on blood flow in the vertebral artery, blood pressure and heart rate in anesthetized dogs
Mongrel dogs of either sex, weighing 6.8-9.4 kg, were used. The animals were anesthetized with an intravenous injection, at first, of 30 mg/kg of sodium thiopental and thereafter, of a combination of urethane 400 mg/kg and α-chloralose 60 mg/kg. Under artificial ventilation (20 ml/kg/stroke, 20 strokes/min), blood flow in the vertebral artery and blood pressure were measured with the aid of an extracorporeal electromagnetic flow probe placed on the artery and a pressure transducer, respectively. Vertebral vascular resistance was recorded with an electronic divider and heart rate was measured with a heart rate counter triggered by blood pressure pulses. All of these parameters were recorded on a polygraph continuously. When these parameters became stable, test compounds were injected into the femoral vein.

[5] = tested on: Male ddY mice; assay: Anti-cerebroischemic effect (brain protection after ischemia by decapitation): gasping time; format: in vivo, mouse (male ddY); conditions: intraperitoneal, 30 min before decapitation
Method: 1. Anti-cerebroischemic effect (i.e., brain protection after ischemia by decapitation)
Male ddY mice weighing 22-30 g were used in groups each consisting of 6 animals. Test compounds were administered intraperitoneally to the mice which were decapitated 30 minutes after the administration. The gasping time, or the duration of time between the onset of panting after decapitation and its cessation, was measured, and this was compared with the gasping time for a control group which were given only a liquid vehicle.

[6] = tested on: scopolamine amnesia mouse; assay: Anti-amnesia effect (scopolamine-induced retrograde amnesia), step-through passive avoidance; format: in vivo, mouse (male ddY); conditions: ip, 24 h, significant prolongation of step-through latency, intraperitoneal, scopolamine 0.5 mg/kg s.c., read-out: Minimum effective amount
Method: 6a. Anti-amnesia effect (i.e., capability of preventing scopolamine-inducedretrograde amnesia)
Five-week old male ddY weighing 25-30 g were used in groups each consisting of 10 animals. Memory retention deficit induced by scopolamine was evaluated by two-compartment step-through passive avoidance task. […] The floor of the dark compartment was provided with a current-conducting grid.
The experimental method was as follows. A scopolamine amnesia mouse that had been given subcutaneous injection of 0.5 mg/kg of an aqueous solution of scopolamine borate 20 minutes before was placed in the light compartment and when its forefeet touched the grid floor of the dark compartment, a current of 0.6 mA was applied to give a foot shock to the mouse (acquired conation). Immediately thereafter, a selected test compound or a control (physiological saline solution) was administered intraperitoneally. Twenty-four hours later, the mouse was replaced in the light compartment and the step-through latency, or the time required for the mouse to move to the dark compartment, was measured for a period of up to 300 seconds (test conation). The minimum effective amount of the test compound that provided a significant prolongation of the step-through latency over the control was determined.

[7] = tested on: Male ddY mice; assay: Anti-hypoxia effect (brain protection in low-oxygen state after evacuation): survival time; format: in vivo, mouse (male ddY); conditions: intraperitoneal, 180 mmHg
Method: 2. Anti-hypoxia effect (i.e., […] protection in low-oxygen state after evacuation)
Male ddY m8mice weighing 22-30 g were used in groups each consisting of 7-10 animals. The mice were placed in a desiccator (capacity: ca. 1,000 ml) which was evacuated with a vacuum pump to an internal pressure of 180 mmHg after intraperitoneal administration of test compounds. The survival time, or the duration of time between the start of evacuation and the cessation of breathing, was measured, and this was compared with the value for a vehicle group. Any survival time longer than a period of 15 minutes after application of a hypoxia load was counted as 15 minutes.

[8] = tested on: rabbit platelet rich plasma; assay: Effect on in vitro platelet aggregation; format: cell-based, rabbit (male Japanese white); conditions: Oryctolagus cuniculus, aggregator AA, read-out: Anti-platelet aggregation IC50, AA
[9] = tested on: rabbit platelet rich plasma; assay: Effect on in vitro platelet aggregation; format: cell-based, rabbit (male Japanese white); conditions: for IC50: Oryctolagus cuniculus, Platelet
Method: 5. Effect on in vitro platelet aggregation Arterial blood was drawn from the ear artery of male Japanese white rabbits. Platelet rich plasma (PRP) was prepared by centrifugation of 9 ml of blood mixed with 1 ml of 3.8% sodium citrate as anticoagulant. Platelet aggregation was measured optically according to Born's method. ADP (10 μM), collagen (37.5 μg/ml), platelet activating factor (PAF, 0.11 nM) and calcium ionophore A 23187 (1 μg/ml) were used as platelet aggregators. Test compounds were added 1 minute prior to the addition of aggregating agents.

[10] = aggregator ADP (10 μM), read-out: Anti-platelet aggregation IC50, ADP
[11] = aggregator PAF (0.11 nM), read-out: Anti-platelet aggregation IC50, PAF
[12] = aggregator calcium ionophore A 23187 (1 μg/ml), read-out: Anti-platelet aggregation IC50, A 23187
[13] = aggregator collagen (37.5 μg/ml), read-out: Anti-platelet aggregation IC50, Collagen

With `CN(C)CCCON=C1c2ccccc2OC2(c3ccccc3)CC12` (stereo not shown) [Example 2, 3,4-Benzo-5-(3-dimethylaminopropyl)oxyimino-1-phenyl-2-oxabicyclo[4.1.0]heptane] the “prevention of ECS-induced shortening of step-through latency” value [1] was “significantly prevented the ECS-induced shortening of step-through latency”, the “anti-depression effect” value [2] was “anti-depression effect” and the “rotation of the water wheel relative to control group” value ([2]; one hour before forced swimming) was 1.8 times. For the same compound, the “prolongation of step-through latency shortened by cycloheximide” value [3] was “significantly prolonged the step-through latency”, the blood pressure ([4]; 3.0 mg/kg) was “small decrease” and the heart rate ([4]; 3.0 mg/kg) was “increase”. For the same compound, the vertebral vascular resistance ([4]; 3.0 mg/kg) was “further decrease”, the blood pressure ([4]; 0.3 and 1.0 mg/kg) was “almost no change” and the heart rate ([4]; 0.3 and 1.0 mg/kg) was “almost no change”. The vertebral vascular resistance ([4]; 0.3 and 1.0 mg/kg) was “dose-dependent decreases”, the “prolongation of gasping time” value ([5]; 12.5 mg/kg) was “significant prolongation of the gasping time” and the “prolongation of gasping time” value ([5]; 25 mg/kg) was “significantly prolonging the gasping time”. The minimal effective dose [6] was 3.2 mg/kg, the “prolongation of survival time” value ([7]; 6.25 mg/kg or smaller) was “significant prolongation of the survival time” and the “prolongation of survival time” value ([7]; 12.5 mg/kg) was “significantly prolonging the survival time”. The IC50 [8] was 54 µg/mL (≈ 161 µM), the IC50 [9, 10] was 34.5 µg/mL (≈ 103 µM) and the IC50 [9, 11] was 20 µg/mL (≈ 59.4 µM). For the same compound, the IC50 [9, 12] was 69 µg/mL (≈ 205 µM), the IC50 [9, 13] was 4.1 µg/mL (≈ 12.2 µM) and the “platelet aggregation” value ([9]; all the aggregators used, listed as Compound No. 2) was “decreases in platelet aggregation induced by all the aggregators used; also recorded: nonspecific inhibitory actions on in vitro platelet aggregation”.

For `CN(C)CCCN1c2ccccc2Sc2ccc(Cl)cc21` [Chlorpromazine], the IC50 [8] was 105 µg/mL (≈ 329 µM), the IC50 [9, 10] was 57 µg/mL (≈ 179 µM) and the IC50 [9, 11] was 93 µg/mL (≈ 292 µM). It also gave an IC50 [9, 12] of 125 µg/mL (≈ 392 µM) and an IC50 [9, 13] of 22 µg/mL (≈ 69 µM).

Work on `NCCCCCCNS(=O)(=O)c1cccc2c(Cl)cccc12` [Example W-7] yielded an IC50 [8] of 11 µg/mL (≈ 32.3 µM), an IC50 [9, 10] of 18 µg/mL (≈ 52.8 µM) and an IC50 [9, 11] of 27 µg/mL (≈ 79.2 µM). It also gave an IC50 [9, 12] of 19 µg/mL (≈ 55.7 µM) and an IC50 [9, 13] of 11 µg/mL (≈ 32.3 µM).
